Test results from patent US20230002327A1, “SMALL-MOLECULE REGULATOR OF TLR8” (TSINGHUA UNIVERSITY, priority 2019, published 2023).

Tests used:
TLR8 = molecular target: T1, TLR8 (Homo sapiens, UniProt Q9NR97); assay: Inhibition of R848-induced signaling in HEK-Blue hTLR8 cell line (Quanti-Blue); format: cell-based; conditions: HEK-Blue hTLR8 cell line; for IC50: R848-induced signaling, value ± standard deviation, at least triplicate; for Remaining R848-induced TLR8 signaling (normalized activity; ligand+DMSO = 1, untreated = 0): ligand+DMSO = 100% activity
T1 construct: host or cells: HEK-Blue hTLR8 (HEK293-derived SEAP reporter cells)
T1 sequence (Q9NR97 27-1041): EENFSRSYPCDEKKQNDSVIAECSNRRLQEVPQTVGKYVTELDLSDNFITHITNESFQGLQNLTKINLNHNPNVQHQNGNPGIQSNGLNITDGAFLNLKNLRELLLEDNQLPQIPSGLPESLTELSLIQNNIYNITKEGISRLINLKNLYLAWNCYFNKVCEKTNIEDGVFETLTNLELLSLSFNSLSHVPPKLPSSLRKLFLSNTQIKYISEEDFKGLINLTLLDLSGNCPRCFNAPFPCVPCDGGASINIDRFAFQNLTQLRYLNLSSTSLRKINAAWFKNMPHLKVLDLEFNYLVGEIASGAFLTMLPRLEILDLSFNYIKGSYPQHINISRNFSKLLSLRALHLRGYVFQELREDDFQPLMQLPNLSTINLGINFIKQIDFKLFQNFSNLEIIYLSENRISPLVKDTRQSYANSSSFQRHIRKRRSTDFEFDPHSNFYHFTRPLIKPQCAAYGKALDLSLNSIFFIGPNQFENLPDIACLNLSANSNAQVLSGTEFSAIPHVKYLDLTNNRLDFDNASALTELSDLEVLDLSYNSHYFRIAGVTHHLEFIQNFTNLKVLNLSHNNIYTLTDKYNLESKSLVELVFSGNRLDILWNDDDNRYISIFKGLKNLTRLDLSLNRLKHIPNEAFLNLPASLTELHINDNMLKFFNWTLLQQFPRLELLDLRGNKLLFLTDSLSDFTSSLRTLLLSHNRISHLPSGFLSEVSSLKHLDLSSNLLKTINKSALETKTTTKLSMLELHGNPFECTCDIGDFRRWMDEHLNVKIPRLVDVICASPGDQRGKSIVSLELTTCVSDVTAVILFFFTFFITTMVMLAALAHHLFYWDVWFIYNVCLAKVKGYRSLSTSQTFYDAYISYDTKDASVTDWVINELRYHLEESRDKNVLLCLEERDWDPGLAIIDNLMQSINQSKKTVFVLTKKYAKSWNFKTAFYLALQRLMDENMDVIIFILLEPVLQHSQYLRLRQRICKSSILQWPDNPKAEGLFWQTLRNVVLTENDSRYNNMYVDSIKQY
Description: (§1) HEK Blue hTLR8 cells or HEK Blue hTLR7 cells were cultured in DMEM medium supplemented with 10% fetal bovine serum, penicillin (100 U/mL) and streptomycin ([…]). Thereafter, cells were seeded in 96-well plate (45,000 cells per well), and were cultured for 24 hours in a humidified incubator (37° C., 5% CO2).
After 24 hours, the supernatant and suspending cells were aspirated and replaced with fresh serum-free DMEM.
(§2) After 24 hours, 50 μL of the medium was aspirated from each well and then added to a new 96-well plate, followed by the addition of 50 μL of Quanti-Blue in each well and the incubation at 37° C. in darkness. Changes in color would occur in the […] within 60 minutes, and the absorbance was measured at 620 nm by using the multi-mode plate reader Vrioskan Flash. Inhibition rate (%)=[R848 (OD620)−Compound (OD620)]/[R848 (OD620)−Control (OD620)]×100%. Among these, the control group was only added with the same amount of cells. Finally, the software Prism 6.0 was utilized to plot a graph and calculate IC50 values. Or, the activity of the cells treated with ligand and DMSO was defined as 100% activity, and the activity of the untreated cells was defined as 0% activity.

TLR7 = molecular target: T2, TLR7 (Homo sapiens, UniProt Q9NYK1); assay: Inhibition of R848-induced signaling in HEK-Blue hTLR7 cell line (Quanti-Blue); format: cell-based
T2 construct: host or cells: HEK-Blue hTLR7 (HEK293-derived SEAP reporter cells)
T2 sequence (Q9NYK1 27-1049): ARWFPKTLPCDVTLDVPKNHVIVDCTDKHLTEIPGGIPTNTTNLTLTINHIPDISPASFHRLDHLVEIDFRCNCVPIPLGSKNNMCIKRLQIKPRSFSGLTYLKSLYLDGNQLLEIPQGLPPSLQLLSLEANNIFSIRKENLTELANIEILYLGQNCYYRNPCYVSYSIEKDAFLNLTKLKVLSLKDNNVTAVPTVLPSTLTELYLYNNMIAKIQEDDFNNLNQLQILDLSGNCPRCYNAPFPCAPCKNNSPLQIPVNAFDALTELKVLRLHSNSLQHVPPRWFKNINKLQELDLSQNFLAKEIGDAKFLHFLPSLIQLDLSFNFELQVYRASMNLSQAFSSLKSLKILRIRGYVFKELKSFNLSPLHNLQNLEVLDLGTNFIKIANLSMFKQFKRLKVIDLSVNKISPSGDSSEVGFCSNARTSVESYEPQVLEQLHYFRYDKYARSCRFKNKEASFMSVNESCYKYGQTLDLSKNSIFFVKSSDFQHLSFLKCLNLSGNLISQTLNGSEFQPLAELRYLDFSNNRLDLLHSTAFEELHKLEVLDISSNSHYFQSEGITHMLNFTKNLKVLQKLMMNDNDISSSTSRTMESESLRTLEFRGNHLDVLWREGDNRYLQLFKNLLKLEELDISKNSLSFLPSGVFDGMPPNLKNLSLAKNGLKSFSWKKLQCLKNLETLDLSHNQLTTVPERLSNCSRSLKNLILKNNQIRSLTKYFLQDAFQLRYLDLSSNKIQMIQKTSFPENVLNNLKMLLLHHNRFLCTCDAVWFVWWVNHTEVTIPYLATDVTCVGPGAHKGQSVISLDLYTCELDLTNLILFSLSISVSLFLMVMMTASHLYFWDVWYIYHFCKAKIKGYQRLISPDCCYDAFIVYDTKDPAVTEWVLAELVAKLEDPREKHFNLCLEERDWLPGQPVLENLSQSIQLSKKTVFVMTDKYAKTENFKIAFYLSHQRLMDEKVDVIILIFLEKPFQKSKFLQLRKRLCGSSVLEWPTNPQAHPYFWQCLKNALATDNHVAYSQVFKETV
Description: as §1
After 24 hours, the supernatant and suspending cells were aspirated and replaced with fresh serum-free DMEM. Cells were treated with 1 μg/mL of R848 (agonist of TLR7/8) or 5 μg/mL of ssRNA40/LyoVec or 5 μg/mL of ORN06/LyoVec (InvivoGen) and compounds with specified concentrations, and were placed in a humidified incubator (37° C., 5% CO2) for co-culture.
as §2

In the case of `Fc1cccc(-n2cnnc2SCc2c(Cl)cccc2Cl)c1` [Compound 1, 3-((2,6-dichlorobenyl)thio)-4-(3-fluorophenyl)-4H-1,2,4-triazole], the IC50 (TLR8) is reported as 1950 ± 190 nM.
`Cc1nnc(SCc2c(Cl)cccc2Cl)n1-c1cccc(F)c1` [Compound 2, 3-((2,6-dichlorobenzyl)thio)-4-(3-fluorophenyl)-5-methyl-4H-1,2,4-triazole] gave an IC50 (TLR8) of 6180 ± 290 nM.
Compound `CSc1nnc(CCO)n1-c1ccc(Cl)cc1Cl` [Compound 4, 2-(4-(2,4-dichlorophenyl)-5-(methylthio)-4H-1,2,4-triazole-3-yl)ethan-1-ol] has an IC50 (TLR8) of 590 ± 30 nM.
`CCCc1nnc(SC)n1-c1ccc(Cl)cc1Cl` [Compound 7, 4-(2,4-dichlorophenyl)-3-(methylthio)-5-propyl-4H-1,2,4-triazole] showed an IC50 (TLR8) of 630 ± 20 nM.
In the case of `CCSc1nnc(CCCO)n1-c1ccc(Cl)cc1Cl` [Compound 11, 3-(4-(2,4-dichlorophenyl)-5-(ethylthio)-4H-1,2,4-triazole-3-yl)propan-1-ol], the IC50 (TLR8) is reported as 390 ± 40 nM.
`CC(C)Sc1nnc(CCCO)n1-c1ccc(Cl)cc1Cl` [Compound 12, 3-(4-(2,4-dichlorophenyl)-5-(isopropylthio)-4H-1,2,4-triazole-3-yl)propan-1-ol] gave an IC50 (TLR8) of 10100 ± 800 nM.
`OCCCc1nnc(SCC2CC2)n1-c1ccc(Cl)cc1Cl` [Compound 13, 3-(5-((cyclopropylmethyl)thio)-4-(2,4-dichlorophenyl)-4H-1,2,4-triazole-3-yl)propan-1-ol] was tested, and the IC50 (TLR8) was 8010 ± 130 nM.
In the case of `CSc1nnc(CCCO)n1-c1ccc(F)cc1F` [Compound 15, 3-(4-(2,4-difluorophenyl)-5-(methylthio)-4H-1,2,4-triazole-3-yl)propan-1-ol], the IC50 (TLR8) is reported as 2130 ± 560 nM.
In the case of `CSc1nnc(CCCO)n1-c1ccccc1Cl` [Compound 17, 3-(4-(2-chlorophenyl)-5-(methylthio)-4H-1,2,4-triazole-3-yl)propan-1-ol], the IC50 (TLR8) is reported as 980 nM.
Work on `CSc1nnc(CCCO)n1-c1cccc(Cl)c1` [Compound 18, 3-(4-(3-chlorophenyl)-5-(methylthio)-4H-1,2,4-triazole-3-yl)propan-1-ol] yielded an IC50 (TLR8) of 350 ± 20 nM.
With `CSc1nnc(CCCO)n1-c1ccc(Cl)c(Cl)c1` [Compound 19, 3-(4-(3,4-dichlorophenyl)-5-(methylthio)-4H-1,2,4-triazole-3-yl)propan-1-ol] the IC50 (TLR8) was 190 ± 10 nM.
For `CSc1nnc(CCCO)n1-c1cccc(Cl)c1Cl` [Compound 20, 3-(4-(2,3-dichlorophenyl)-5-(methylthio)-4H-1,2,4-triazole-3-yl)propan-1-ol], the IC50 (TLR8) was 800 ± 70 nM.
`CSc1nnc(CCCO)n1-c1c(Cl)cc(Cl)cc1Cl` [Compound 21, 3-(5-(methylthio)-4-(2,4,6-trichlorophenyl)-4H-1,2,4-triazole-3-yl)propan-1-ol] showed an IC50 (TLR8) of 2810 ± 440 nM.
`CSc1nnc(CCCO)n1-c1ccc(Cl)c(Cl)c1Cl` [Compound 22, 3-(5-(methylthio)-4-(2,3,4-trichlorophenyl)-4H-1,2,4-triazole-3-yl)propan-1-ol] gave an IC50 (TLR8) of 600 ± 100 nM.
Compound `CSc1nnc(CCCO)n1-c1cc(Cl)c(Cl)c(Cl)c1` [Compound 23, 3-(5-(methylthio)-4-(3,4,5-trichlorophenyl)-4H-1,2,4-triazole-3-yl)propan-1-ol] has an IC50 (TLR8) of 110 ± 10 nM.
Compound `COc1ccc(-n2c(CCCO)nnc2SC)cc1` [Compound 25, 3-(4-(4-methoxyphenyl)-5-(methylthio)-4H-1,2,4-triazole-3-yl)propan-1-ol] has an IC50 (TLR8) of 3860 ± 310 nM.
For `CSc1nnc(CCCO)n1-c1ccc(C(F)(F)F)cc1` [Compound 26, 3-(5-(methylthio)-4-(4-(trifluoromethyl)phenyl)-4H-1,2,4-triazole-3-yl)propan-1-ol], the IC50 (TLR8) was 4840 ± 820 nM.
Compound `OCCCc1nnc(SCc2c(Cl)cccc2Cl)n1-c1ccc(F)cc1F` [Compound 33, 3-(5-((2,6-dichlorobenzyl)thio)-4-(2,4-difluorophenyl)-4H-1,2,4-triazole-3-yl)propan-1-ol] has an IC50 (TLR8) of 8440 ± 780 nM.
`OCCCCc1nnc(SCc2c(Cl)cccc2Cl)n1-c1ccc(F)cc1F` [Compound 34, 4-(5-((2,6-dichlorobenzyl)thio)-4-(2,4-difluorophenyl)-4H-1,2,4-triazole-3-yl)butan-1-ol] gave an IC50 (TLR8) of 11400 ± 700 nM.
`CSc1nnc(CCCO)n1-c1cnc2ccccc2c1` [Compound 36, 3-(5-(methylthio)-4-(quinolin-3-yl)-4H-1,2,4-triazole-3-yl)propan-1-ol] was tested, and the IC50 (TLR8) was 740 nM.
In the case of `CSc1nnc(CCCO)n1-c1ccc2ncccc2c1` [Compound 37, 3-(5-(methylthio)-4-(quinolin-6-yl)-4H-1,2,4-triazole-3-yl)propan-1-ol], the IC50 (TLR8) is reported as 650 ± 10 nM.
In the case of `CCOCc1nc(C(C)(C)O)c(-c2ccccc2)n1CC(C)(C)O` [Compound 47, 1-[2-(ethoxymethyl)-4-(2-hydroxypropan-2-yl)-5-phenyl-1H-imidazole-1-yl]-2-methylpropan-2-ol], the “Remaining R848-induced TLR8 signaling (normalized activity; ligand+DMSO = 1, untreated = 0)” value (TLR8) is reported as 0.9 ± 0.1 and the “TLR7 (normalized inhibitory effect on R848-induced signaling)” value (TLR7) is reported as 0.8 ± 0.0.
In the case of `CCOCc1nc(-c2ccccc2)c(-c2ccccc2)n1CC(C)(C)O` [Compound 49, 1-[2-(ethoxymethyl)-4,5-diphenyl-1H-imidazole-1-yl]-2-methylpropan-2-ol], the “Remaining R848-induced TLR8 signaling (normalized activity; ligand+DMSO = 1, untreated = 0)” value (TLR8) is reported as 0.6 ± 0.0 and the “TLR7 (normalized inhibitory effect on R848-induced signaling)” value (TLR7) is reported as 0.8 ± 0.0.
With `CC(C)Cn1cnc(I)c1-c1ccccc1` [Compound 59, 4-iodo-1-(2-methylpropyl)-5-phenyl-1H-imidazole] the “Remaining R848-induced TLR8 signaling (normalized activity; ligand+DMSO = 1, untreated = 0)” value (TLR8) was 0.2 ± 0.1 and the “TLR7 (normalized inhibitory effect on R848-induced signaling)” value (TLR7) was 0.2 ± 0.1.
